The target in this test is dopamine D2 receptor (Rattus norvegicus, UniProt P61169). The test is described as follows: Receptor binding assay, 3H-ADTN displacement on rat striatal membranes (affinity for the dopamine D2 receptor). Also noted: species or system rat (Sprague Dawley).
Setting [1] is: rat striatal membranes, 1 nM 3H-ADTN, 0.1 μM SCH 23390, 40 min at 25° C., non-specific binding with 50 nM spiperone, read-out: Ki, affinity of the test substances for the dopamine D2 receptor.

pKi: −log10 of the molar value. Where a name gives a salt, the structure may show the parent alone. Read-outs that look alike come from different tables or passages of the source.

Sequence of dopamine D2 receptor (P61169 whole entry): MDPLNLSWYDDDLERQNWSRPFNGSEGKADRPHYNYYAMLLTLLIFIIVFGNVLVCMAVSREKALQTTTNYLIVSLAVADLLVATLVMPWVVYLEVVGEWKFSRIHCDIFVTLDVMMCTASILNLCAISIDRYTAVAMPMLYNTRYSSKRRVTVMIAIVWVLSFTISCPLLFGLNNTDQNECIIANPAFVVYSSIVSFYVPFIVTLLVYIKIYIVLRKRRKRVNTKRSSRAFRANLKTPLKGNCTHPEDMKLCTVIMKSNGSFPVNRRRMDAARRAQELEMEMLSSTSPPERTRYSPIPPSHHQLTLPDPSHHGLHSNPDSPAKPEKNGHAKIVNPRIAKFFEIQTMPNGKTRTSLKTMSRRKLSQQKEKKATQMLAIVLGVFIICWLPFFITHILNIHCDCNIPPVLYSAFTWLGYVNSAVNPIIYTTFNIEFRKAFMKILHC
Procedure: Striata from rats (Sprague Dawley, Charles River) were homogenized immediately after removal in 0.32M sucrose solution (0° C.). The homogenate was filtered through gauze, the filtrate was centrifuged at 1000 ×g (5 min at 4° C.) and the resulting supernatant was centrifuged at 40000 ×g (4° C., 10 min). The residue (membranes) was taken up in incubation buffer (50 mM tris-HCl, 1 mM MgCl2 and 0.1% ascorbic acid, pH 7.4) and incubated at 37° C. for 20 min. The residue was subsequently washed 2× with incubation buffer by resuspension and recentrifugation. The membranes were frozen in portions in liquid nitrogen.
The assay mixtures (1 ml) were composed of membranes (380 μg of protein), 1 nM ^3 H-ADTN (NEN, Dreieich Germany, specific radioactivity 1.4 TBq/mmol) and 0.1 μM SCH 23390 (total binding) or a) with the addition of 50 nM spiperone (non-specific binding) or b) with test substance. The mixtures were prepared in triplicate.
After the incubation (40 min at 25° C.) the mixtures were filtered through glass fiber filters (Whatman GF/B) and briefly washed with ice-cold washing buffer (tris-HCl, pH 7.4). The radioactivity retained on the filters was determined by liquid scintillation counting. The non-specific binding comprised about 40-50% of the total binding.
The evaluation of the competition plots and the determination of the dissociation constant took place by iterative non-linear regression analysis based on the "ligand" program (Muson and Rodbard: Anal. Biochem. 107 (1980) 220).

The term pKi denotes the Ki on a negative log10 scale, so that one unit is a factor of ten. Turning to `CCCN(CCSc1sc(N)nc1C)CCc1ccccc1` [Example 5, 2-Amino-4-methyl-5-[2-(N-phenethyl-N-propylamino)-ethylthio]thiazole hydrochloride], the pKi under setting [1] was 7.74. On to `Cc1nc(N)sc1SCCN1CCC(c2ccccc2)CC1` [Example 1, 2-Amino-4-methyl-5-[2-(4-phenylpiperidinyl)ethyl-thio]thiazole hydrochloride], for which the pKi under setting [1] is 7.92. Same read-out and setting: the value for `CCCN(CCCSc1sc(N)nc1C)CCc1ccccc1` [Example 7, 2-Amino-4-methyl-5-[3-(N-phenethyl-N-propylamino)propylthio]thiazole tartrate] was 8.05.

Regarding `Cc1nc(N)sc1SCCN1CC=C(c2ccccc2)CC1` [Example 2, 2-Amino-5-[2-(1,2,3,6-tetrahydro-4-phenylpyridinyl)-ethylthio]-4-methylthiazole hydrochloride], the pKi is 8.52. Take `Cc1nc(N)sc1SCCN1CCN(c2ccccc2)CC1` [Example 3, 2-Amino-4-methyl-5-[2-(4-phenylpiperazinyl)ethylthio]thiazole hydrochloride]: under setting [1], the pKi is 7.72.

For the origin of these results see patent US5418235A, “Aminoalkyl-substituted 5-mercaptothiazoles, the preparation and use thereof” (BASF Aktiengesellschaft, priority 1991, dated 1995).
